# Laboratory results from US12063929B2, “3′-alkynyl abscisic acid derivatives as ABA antagonists” (University of Saskatchewan, priority 2018, dated 2024).
# Tested on: Canary seed (CDC Bastia; 2018)
# Assay: Canary seed germination assay
# Assay type: in vivo
smiles,measurement,setting,value
"CC1=C(C#Cc2ccccc2)C(=O)CC(C)(C)[C@@]1(O)/C=C/C(C)=C\C(=O)O [Compound 1019, (2Z,4E)-5-((S)-1-Hydroxy-2,6,6-trimethyl-4-oxo-3-(phenylethynyl)cyclohex-2-en-1-yl)-3-methylpenta-2,4-dienoic acid]",canary seed germination,"10 μM compound plus 10 μM ABA, day 4",did not
same,canary seed germination,"100 μM compound plus 10 μM ABA, day 4",overcame inhibition
same,canary seed germination,"compound alone, 10 μM or 100 μM",Neither concentration of exemplary compound 1019 affected germination
